# US20170224840A1, “Drug Delivery System Comprising A Cancer Stem Cell-Targeted Carbon Nanotube, Preparation and Use Thereof” (Institute of Pharmacology and Toxicology Academy of …, priority 2014, published 2017)
# What was measured:
# [1] = test system: gastric cancer stem cell spheres; assay: Penetration of stem cell spheres by laser confocal microscopy; format: cell-based, human; settings: FITC 5 uM, 12 hours
# Experimental: (§1) CD44+ cell suspension was inoculated to a low-absorption 24-well plate in an amount of 5×10^4/well, and subjected to suspension culture with DMEM/F12 medium (1% N2, 2% B27, 10 ng/mL bFGF, 20 ng/mL EGF), incubated in a 5% CO2 incubator at 37° C. for 6 days. Medium was replaced every three days. The stem cell spheres with diameter of more than 200 μm were transferred to a 96-well culture plate, one sphere per well.
# Free FITC, FITC-SWNTs-CHI or FITC-SWNTs-CHI-HA were separately added to the wells of a 96-well plate containing stem cell spheres, and the concentration of FITC in the above preparations was 5 uM. After the addition, the 96-well plate was placed in a 37° C., 5% CO2 incubator to continue the culture for 12 hours; then the stem cell spheres were transferred to a glass-bottom dish, 5 stem cell spheres in each group, washed three times with fresh culture medium, and then 100 μl of fresh culture medium was added in each dish; for each stem cell sphere, it was light-cut into layers from the top to the center of the sphere at 10 μm intervals, and FITC fluorescence intensities of different layers were studied.
# CD44+ cells [2] = assay: WST-8 proliferation inhibition, CD44+ cells; format: cell-based, human; settings: 48 h, series of concentrations
# Experimental: (§2) CD44+ cells and CD44-cells sorted from human gastric cancer cell line AGS were seeded in an amount of 5000/well to 96-well plates, and incubated for 24 h at 37° C. in a 5% CO2 incubator. Free salinomycin in a series of concentrations, SAL-SWNTs-CHI, SAL-SWNTs-CHI-HA or blank SWNTs-CHI-HA were added to, and same amount of drug-free culture medium was used as blank control. After the addition, the 96-well plates were incubated for 48 h at 37° C. in a 5% CO2 incubator. After the completion of the cell culture, the plates were taken out and the culture media in the wells were removed. After washing with sterile PBS, 100 μL of PBS and 10 μL of WST-8 reagent were added to each well, and incubation was continued for 2 hours. Optical density (OD) was measured at the wavelength of 450 nm using a microplate reader. The toxicities of various salinomycin preparations on gastric cancer stem cells were evaluated by using the percentages of surviving cells (Survival rate, %) after the addition and culture. The percentages of surviving cells were calculated according to the following formula:
# (§3) Inhibition rate=1−Cell survival rate.
# AGS cells = assay: Effect on proportion of CD44+ cells in AGS cells (flow cytometry); format: cell-based, human; settings: drug concentration 1.0 μM, 48 h; blank control 5.2±0.1%
# Experimental: In order to measure the effects of various salinomycin dosage forms on the expression of CD44 in AGS cells, AGS cells were seeded in 6-well plates at 3×10^5 cells/well. After incubation for 24 h, AGS cells were incubated with free mitomycin, free salinomycin, SAL-SWNTs-CHI or SAL-SWNTs-CHI-HA (drug concentration was 1.0 μM) separately at 37° C. for 48 h. The blank medium was used as control. After incubation, the cells were washed three times with cold PBS, digested with 0.25% trypsin, and then pipetted with PBS to make cell suspensions. The expression rates of CD44 in AGS cells were detected by flow cytometry.
# CD44+ cells [3] = assay: Apoptosis by Annexin V-FITC / propidium iodide flow cytometry; format: cell-based, human; settings: drug concentration 5.0 μM, 12 h
# Experimental: Flow cytometry was used to detect the apoptosis of gastric cancer stein cells via double-staining method with Annexin V-FITC and propidium iodide (PI), so as to observe the activities of various salinomycin dosage forms in induction of apoptosis of gastric cancer stem cells. CD44+ cells were seeded in a 6-well cell culture plate in an amount of 5×10^5 cells/well (2 ml), and incubated at 37° C. in a 5% CO2 cell incubator for 24 h; and separately added with PBS (pH 7.4, 0.1 M), blank SWNTs-CHI-HA, free salinomycin, SAL-SWNTs-CHI or SAL-SWNTs-CHI-HA (drug concentration: 5.0 μM), and continuously incubated at 37° C. for 12 h in a 5% CO2 cell incubator. The 6-well cell culture plate was removed from the cell culture incubator, the supernatant was carefully sucked up; the cells were washed three times with cold pH7.4 PBS, collected and suspended in 200 μl of binding buffer. 5 μl of Annexin V-FITC and 5 μl of propidium iodide were added in the dark, placed in the dark at room temperature for 15 min, and the apoptotic rate of the cells was detected by flow cytometry.
# CD44− cells = assay: WST-8 proliferation inhibition, CD44- cells; format: cell-based, human; settings: 48 h, series of concentrations
# Experimental: as §2, §3
# [4] = cited from earlier work
# [5] = test system: gastric cancer stem cell spheres; assay: Inhibition of growth of gastric cancer stem cell spheres; format: cell-based, human; settings: salinomycin 5 μM, 6th day after administration; PBS 433.3±6.0%
# Experimental: as §1
# To the wells of 96-well culture plate, PBS, free salinomycin, SAL-SWNTs-CHI or SAL-SWNTs-CHI-HA were added, respectively, and the concentration of salinomycin in the above preparations was 5 μM. After addition, the 96-well plate was placed in a 37° C., 5% CO2 incubator and incubated continuously. The growth of tumor spheres under these conditions was observed. […] The formula for calculating the inhibition rate of tumor sphere growth was as follows: […], in which dmax was maximum diameter, dmin was minimum diameter; tumor sphere volume change rate %=(Vdayi/Vday0) 100%, in which Vdayi represents the volume of stem cell spheres on the i^th day after administration, and Vday0 represents the volume of stem cell spheres before administration.
# breast cancer stem cells = settings: cited from earlier work
Molecule,FITC fluorescence in stem cell spheres (penetration) [1],Inhibitory effect on proliferation of CD44+ cells (CD44+ cells [2]),Proportion of CD44+ cells after treatment (AGS cells),Apoptotic rate of gastric cancer stem cells (CD44+ cells [3]),Necrosis rate of gastric cancer stem cells (CD44+ cells [3]),Inhibitory effect on proliferation of CD44− cells (CD44− cells),Water solubility [4],Volume change rate of cell spheres [5],Effect of killing breast cancer stem cells relative to paclitaxel (breast cancer stem cells)
fluorescein isothiocyanate [free FITC],weakest fluorescence intensity,,,,,,,,
CC[C@@H](C(=O)[C@@H](C)[C@@H](O)[C@H](C)[C@@H]1O[C@@H]([C@@H](CC)C(=O)O)CC[C@@H]1C)[C@H]1O[C@]2(C=C[C@@H](O)[C@]3(CC[C@@](C)([C@H]4CC[C@](O)(CC)[C@H](C)O4)O3)O2)[C@H](C)C[C@@H]1C [Salinomycin],,significant inhibitory effects,1.75±0.21%,34.8%,4.3%,strongest inhibitory effect,poor,179.5±5.8%,more than 100 times
CO[C@@]12[C@H](COC(N)=O)C3=C(C(=O)C(C)=C(N)C3=O)N1C[C@@H]1N[C@@H]12 [mitomycin C],,,74.9±1.0%,,,,,,
